# Data: patent US20010049393A1, “Methods for defining MYC target genes and uses thereof” (Whitehead Institute for Biomedical Research, priority 1999, published 2001)
# Legend:
# MYC-ER [1] = assay: Cell cycle (S phase) entry after OHT treatment of MYC-ER transduced human fibroblasts; format: cell-based
# Procedure: (§1) Amphotropic viral stocks were generated by co-transfection of pBabe-puro plasmid containing MYC-ER™ or Δ-MYC-ER™ (Littlewood, T. et al., 1995. Nucl. Acids Res. 23:1686-1690) together with Psi^−helper construct (Muller, A. et al., 1991. Mol. Cell. Biol. 11:1785-1792) in 293T cells. Subconfluent WI38 cells (ATCC cat #CCL75) grown in DMEM with 10% FCS were infected with 5 mL of viral supernatant on two consecutive days. The next day, cells were plated at ˜10^4cells/cm^2 in phenol-red free DME medium with 10% FCS, and selected in the presence of puromycin for pBABE vectors. Cells were grown to confluence, for seven to eight days, without media changes. Density arrested cells were induced with 200 nM OHT (4-hydroxy-tamoxifen) or serum starved (0.1% FCS) for 48 hours and then induced. Where specified, cells were exposed to cycloheximide (10 micrograms/mL) for 30 minutes prior to addition of OHT.
# Treatment of the transduced cells with OHT, caused 20% of the cells to enter the cell cycle by 17 hours. In contrast, only 1-6% of, OHT-treated, non-MYC-ER expressing controls ever enter S phase. […]
# MYC-ER [2] = assay: Northern blot of p21 transcript after OHT stimulation of MYC-ER; format: cell-based, human; conditions: within two hours after OHT stimulation, MYC-ER fibroblasts
# Procedure: as §1
# Northern blots were performed according to standard procedures (Ausubel, F. et al., 1990. Current Protocols in Molecular Biology. Wiley Interscience, New York). For cyclin D2 and p21, complete cDNA was used as probes. For FKBP52, a PCR amplicon of bps 1215-1767 (accession number M88279) was used; for FABP5 (PA-FA-BP), bps 60-481 (M94856); for ODC1, bps 1198-1984 (X55362); for PPIF (hCyP3), bps 404-803 (M80254); and for EIF5A, bps 46-512 (U17969). […]
substance,measurement,setting,value
4-hydroxytamoxifen [OHT],cells entering the cell cycle,"MYC-ER [1]; MYC-ER transduced fibroblasts, by 17 hours after OHT",20%
same,cells entering S phase,"MYC-ER [1]; OHT-treated, non-MYC-ER expressing controls",1-6%
same,levels of p21,MYC-ER [2],decreased
